The values that follow come from PubChem BioAssay (NCI).

Among the test systems are HCT-116 colon; HL-60(TB) leukemia; HOP-62 NSCLC; HS 578T breast; K-562 leukemia; LOX IMVI melanoma; SF-268 CNS; TK-10 renal; UACC-257 melanoma; EKVX NSCLC.
What all share (test): NCI anticancer screen, dose series, 48 h

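Five concentrations, 48 hours, 96-well plates. GI50 = concentration required for 50% inhibition of growth. TGI: concentration producing complete growth inhibition.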

With `CCOC(=O)N1CCN(c2nc(Nc3cc(C)[nH]n3)c3ccccc3n2)CC1`, the GI50 in the experiment with HCT-116 colon was 2.13 µM; in the experiment with HL-60(TB) leukemia, 12 µM; with HOP-62 NSCLC, 2.81 µM; in the experiment with HS 578T breast, 1.16 µM; in the experiment with K-562 leukemia, 2.94 µM; in the experiment on LOX IMVI melanoma, 1.86 µM. Moreover, the figures for the GI50 in the experiment with SF-268 CNS, in the experiment on TK-10 renal and in the experiment on UACC-257 melanoma were 3.54 µM, 0.909 µM and 16.3 µM, respectively. For the same molecule, the TGI was 21.3 µM with HCT-116 colon; 34.1 µM in the experiment with HL-60(TB) leukemia; greater than 100 µM in the experiment on HOP-62 NSCLC; 5.42 µM in the experiment with HS 578T breast; greater than 100 µM in the experiment with K-562 leukemia; 10.1 µM in the experiment on LOX IMVI melanoma. For the same molecule, the TGI came to 39 µM with SF-268 CNS, 35.1 µM with TK-10 renal and 52.6 µM in the experiment with UACC-257 melanoma.

Take `COc1ccc(OC)c(/C(C)=N/NC(N)=S)c1`: the TGI in the experiment on EKVX NSCLC, in the experiment on HCT-116 colon, with HL-60(TB) leukemia, with HOP-62 NSCLC, in the experiment on K-562 leukemia and in the experiment on LOX IMVI melanoma was greater than 100 µM throughout. Moreover, the TGI with SF-268 CNS, in the experiment on TK-10 renal and in the experiment with UACC-257 melanoma was greater than 100 µM each time.

Take `C[N-]c1nnnn1C.[Au+].c1ccc([PH+](c2ccccc2)c2ccccc2)cc1`: the GI50 in the experiment with EKVX NSCLC is 4.32 µM; in the experiment on HCT-116 colon, 11.7 µM; in the experiment with HL-60(TB) leukemia, 0.189 µM; with HOP-62 NSCLC it was 7.89 µM; with K-562 leukemia, 0.518 µM; in the experiment with LOX IMVI melanoma it was 2.12 µM. The GI50 in the experiment with SF-268 CNS is 3.5 µM; in the experiment with TK-10 renal, 2.19 µM; in the experiment with UACC-257 melanoma, 2.03 µM. Also, the TGI in the experiment on EKVX NSCLC is 8.99 µM; in the experiment with HCT-116 colon, 23.9 µM; in the experiment with HL-60(TB) leukemia, 0.567 µM; in the experiment with HOP-62 NSCLC it was 16.8 µM; in the experiment with K-562 leukemia, 2.88 µM; in the experiment with LOX IMVI melanoma, 5.77 µM. For the same molecule, the TGI with SF-268 CNS was found to be 15.4 µM; in the experiment on TK-10 renal it was 4.42 µM; in the experiment on UACC-257 melanoma it was 6.51 µM.

Consider `C=C1C(=O)O[C@H]2[C@H]1CC/C(COC(=O)CSCCSCC(=O)OC/C1=C/CC[C@@]3(C)O[C@H]3[C@H]3OC(=O)C(=C)[C@@H]3CC1)=C\CC[C@@]1(C)O[C@@H]21`, for which the GI50 in the experiment with EKVX NSCLC was 1.66 µM; in the experiment on HCT-116 colon, 1.17 µM; in the experiment on HOP-62 NSCLC, 2.45 µM; in the experiment on HS 578T breast, 4.65 µM; in the experiment on K-562 leukemia, 1.17 µM; in the experiment on LOX IMVI melanoma it was 1.49 µM. Besides, the GI50 in the experiment with SF-268 CNS was 1.71 µM; with TK-10 renal, 1.84 µM; with UACC-257 melanoma, 1.93 µM. For the same molecule, the TGI is 3.7 µM in the experiment with EKVX NSCLC; 2.64 µM with HCT-116 colon; 7.38 µM with HOP-62 NSCLC; 38.9 µM with HS 578T breast; 25.7 µM in the experiment with K-562 leukemia; 2.92 µM with LOX IMVI melanoma. Also, the TGI in the experiment with SF-268 CNS was determined as 4.08 µM; in the experiment with TK-10 renal it was 3.29 µM; in the experiment on UACC-257 melanoma, 3.93 µM.

As for `CN(C)CC(C)(C)/C(=N\Nc1ccccc1)c1ccccc1`, the TGI was greater than 100 µM in the experiment with EKVX NSCLC; greater than 100 µM in the experiment on HCT-116 colon; 50.6 µM in the experiment on HL-60(TB) leukemia; greater than 100 µM with HOP-62 NSCLC; greater than 100 µM in the experiment with K-562 leukemia; 37.6 µM with LOX IMVI melanoma. The values for the TGI in the experiment on SF-268 CNS, in the experiment on TK-10 renal and with UACC-257 melanoma were greater than 100 µM, 61.1 µM and greater than 100 µM, respectively.

Take `COc1ccc2c(CN3CCCCC3CO)cc3cc(OC)c(OC)cc3c2c1` (stereo not given): the TGI stood at 19.7 µM with EKVX NSCLC; 13.7 µM in the experiment on HCT-116 colon; 12.5 µM in the experiment with HL-60(TB) leukemia; 20.7 µM in the experiment with HOP-62 NSCLC; 10.1 µM in the experiment on K-562 leukemia; 13.7 µM in the experiment on LOX IMVI melanoma. In addition, the TGI was determined as 20.1 µM in the experiment on SF-268 CNS, 27.5 µM in the experiment with TK-10 renal and 13.7 µM in the experiment with UACC-257 melanoma.

Regarding `CO[C@H]1/C=C/O[C@@]2(C)Oc3c(C)c(O)c4c(c3C2=O)C(=O)C(/C=N/N(c2ccccc2)c2ccccc2)=C(NC(=O)/C(C)=C\C=C\[C@H](C)[C@H](O)[C@@H](C)[C@@H](O)[C@@H](C)[C@H](OC(C)=O)[C@@H]1C)C4=O`, the GI50 is 1.47 µM with HCT-116 colon; 2.17 µM in the experiment with HL-60(TB) leukemia; 1.71 µM in the experiment on HOP-62 NSCLC; 2.04 µM in the experiment with HS 578T breast; 2.69 µM with K-562 leukemia; 1.95 µM with LOX IMVI melanoma. Also, the GI50 in the experiment on SF-268 CNS is 1.79 µM; in the experiment with TK-10 renal, 1.87 µM; in the experiment on UACC-257 melanoma, 1.84 µM. Further, the TGI with HCT-116 colon is 2.96 µM; in the experiment on HL-60(TB) leukemia it was 4.7 µM; in the experiment on HOP-62 NSCLC it was 3.17 µM; in the experiment on HS 578T breast it was 5.39 µM; with K-562 leukemia it was 9.36 µM; in the experiment on LOX IMVI melanoma, 3.79 µM. Also, the values for the TGI in the experiment on SF-268 CNS, with TK-10 renal and in the experiment on UACC-257 melanoma were 3.37 µM, 3.55 µM and 3.9 µM, respectively.

Turning to `CC(C)CC(NC(=O)c1cccc(O)c1O)C(=O)NCc1cc(CNC(=O)C(CC(C)C)NC(=O)c2cccc(O)c2O)cc(CNC(=O)C(CC(C)C)NC(=O)c2cccc(O)c2O)c1` (stereo not given), the TGI was 69.5 µM with EKVX NSCLC; 38.4 µM in the experiment with HCT-116 colon; 19.2 µM with HL-60(TB) leukemia; 52.8 µM in the experiment on HOP-62 NSCLC; greater than 100 µM with K-562 leukemia; 25.6 µM in the experiment with LOX IMVI melanoma. Also, the TGI with SF-268 CNS was greater than 100 µM; in the experiment on TK-10 renal it was greater than 100 µM; in the experiment with UACC-257 melanoma, 58.9 µM.

On to `CCCCCC(=O)C(C)C1=Nc2nnc(CCCCCCCc3nnc4n3C(=O)C(C(C)C(=O)CCCCC)=N4)n2C1=O` (stereo not given), for which the TGI in the experiment with EKVX NSCLC, with HCT-116 colon, in the experiment with HL-60(TB) leukemia, in the experiment on HOP-62 NSCLC, in the experiment with K-562 leukemia and with LOX IMVI melanoma was greater than 100 µM in each case. Also, the TGI in the experiment on SF-268 CNS, with TK-10 renal and in the experiment on UACC-257 melanoma was greater than 100 µM in each case.

As to `CCC[CH2][Sn]([CH2]CCC)([CH2]CCC)[O]c1ccc(Cl)cc1Cl`, the GI50 with EKVX NSCLC was 0.0948 µM; with HCT-116 colon it was 0.0952 µM; with HL-60(TB) leukemia, 0.129 µM; in the experiment on HOP-62 NSCLC it was 0.146 µM; in the experiment with K-562 leukemia, 0.12 µM; with LOX IMVI melanoma, 0.111 µM. The GI50 with SF-268 CNS is 0.128 µM; with TK-10 renal, 0.215 µM; in the experiment with UACC-257 melanoma, 0.154 µM. The TGI was 0.302 µM in the experiment with EKVX NSCLC; 0.231 µM in the experiment on HCT-116 colon; 0.415 µM in the experiment on HL-60(TB) leukemia; 0.294 µM in the experiment with HOP-62 NSCLC; 0.408 µM with K-562 leukemia; 0.253 µM with LOX IMVI melanoma. Besides, the TGI with SF-268 CNS came to 0.301 µM; with TK-10 renal, 0.61 µM; in the experiment with UACC-257 melanoma, 0.305 µM.
